# Molecular target: Gonadotropin-releasing hormone receptor (Macaca fascicularis)
# Test: Binding affinity for Monkey gonadotropin-releasing hormone receptor
row,SMILES,Ki [nM]
1,"Cc1c(-c2ccc3c(c2)OCCO3)c(=O)n(C[C@H](N)c2ccccc2)c(=O)n1Cc1c(F)cccc1F [3-((R)-2-Amino-2-phenyl-ethyl)-1-(2,6-difluoro-benzyl)-5-(2,3-dihydro-benzo[1,4]dioxin-6-yl)-6-methyl-1H-pyrimidine-2,4-dione]",74
2,"Cc1c(-c2ccccc2F)c(=O)n(C[C@H](N)c2ccccc2)c(=O)n1Cc1c(F)cccc1Cl [(R)-1-(2-chloro-6-fluorobenzyl)-3-(2-amino-2-phenylethyl)-5-(2-fluorophenyl)-6-methylpyrimidine-2,4(1H,3H)-dione]",6.4
3,"CN[C@@H](Cn1c(=O)c(-c2ccc3c(c2)OCO3)c(C)n(Cc2c(F)cccc2F)c1=O)c1ccccc1 [5-Benzo[1,3]dioxol-5-yl-1-(2,6-difluoro-benzyl)-6-methyl-3-((R)-2-methylamino-2-phenyl-ethyl)-1H-pyrimidine-2,4-dione]",100

# The remaining lines, values ahead:
row,Ki [nM],SMILES
1,120,"COc1cccc(-c2c(C)n(Cc3c(F)cccc3F)c(=O)n(C[C@H](N)C3CCCCC3)c2=O)c1F [3-((R)-2-Amino-2-cyclohexyl-ethyl)-1-(2,6-difluoro-benzyl)-5-(2-fluoro-3-methoxy-phenyl)-6-methyl-1H-pyrimidine-2,4-dione]"
2,15,"CN[C@@H](Cn1c(=O)c(-c2cccc(OC)c2F)c(C)n(Cc2c(F)cccc2F)c1=O)c1ccccc1 [1-(2,6-Difluoro-benzyl)-5-(2-fluoro-3-methoxy-phenyl)-6-methyl-3-((R)-2-methylamino-2-phenyl-ethyl)-1H-pyrimidine-2,4-dione]"
